Measurements from patent EP0570112A1, “Cycloalkane derivatives” (ZENECA LIMITED, priority 1992, dated 1993).

Target: T1, 5-LO (Homo sapiens, UniProt P09917)
T1 construct: incubating a test compound with heparinised human blood, prior to challenge with the calcium ionophore A23187; endogenous in cells; host or cells: blood cells of heparinised human whole blood
T1 sequence (P09917 1-674): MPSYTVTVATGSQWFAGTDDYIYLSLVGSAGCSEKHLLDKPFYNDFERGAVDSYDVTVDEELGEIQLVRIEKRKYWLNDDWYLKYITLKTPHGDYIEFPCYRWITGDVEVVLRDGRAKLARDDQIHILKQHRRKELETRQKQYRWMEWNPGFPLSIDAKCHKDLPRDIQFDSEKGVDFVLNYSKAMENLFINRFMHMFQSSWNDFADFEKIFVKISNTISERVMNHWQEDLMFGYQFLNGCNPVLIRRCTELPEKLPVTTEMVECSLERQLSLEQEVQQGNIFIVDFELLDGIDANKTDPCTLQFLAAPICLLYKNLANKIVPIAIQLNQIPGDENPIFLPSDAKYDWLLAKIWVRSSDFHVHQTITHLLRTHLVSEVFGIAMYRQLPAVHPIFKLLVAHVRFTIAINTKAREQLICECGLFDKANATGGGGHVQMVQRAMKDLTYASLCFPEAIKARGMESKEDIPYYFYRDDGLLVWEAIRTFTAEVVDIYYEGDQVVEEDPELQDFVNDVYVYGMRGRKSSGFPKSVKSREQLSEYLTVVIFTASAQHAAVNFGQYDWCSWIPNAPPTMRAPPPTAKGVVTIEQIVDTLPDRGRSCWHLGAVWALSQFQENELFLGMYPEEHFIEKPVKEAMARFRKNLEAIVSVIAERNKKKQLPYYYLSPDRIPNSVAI
Assay: Test a): in vitro heparinised human blood challenged with calcium ionophore A23187, radioimmunoassay of LTB4
Assay type: cell-based
Conditions: A23187 challenge, read-out: IC₅₀ against LTB₄
Excerpt: As stated previously, the compounds of the formula I are inhibitors of the enzyme 5-LO. […] J. Pharmacol. 1985, 84, 34P) which involve the use of a protein-LTB₄ conjugate produced using the procedure of Young et alia (Prostaglandins, 1983, 26(4), 605-613). The effects of a test compound on the enzyme cyclooxygenase (which is involved in the alternative metabolic pathway for arachidonic acid and gives rise to prostaglandins, thromboxanes and related metabolites) may be measured at the same time using the specific radioimmunoassay for thromboxane B₂(TxB₂) described by Carey and Forder (see above). This test provides an indication of the effects of a test compound against 5-LO and also cyclooxygenase in the presence of blood cells and proteins. It permits the selectivity of the inhibitory effect on 5-LO or cyclooxygenase to be assessed. • b) An ex vivo assay system, which is a variation of test a) above, involving administration to a group of rats of a test compound (usually orally as the suspension produced when a solution of the test compound in dimethylsulphoxide is added to carboxymethylcellulose), blood collection, heparinisation, challenge with A23187 and radioimmunoassay of LTB₄ and TxB₂. […]

Row | IC50 [nM] | Structure (SMILES)
1 | 40 | COC1(OC)CC[C@H](C)[C@H](c2cccc(OCc3ccc4c(ccc(=O)n4C)c3)c2)C1 (racemic) [Example 4, (3RS,4SR)-1,1-dimethoxy-4-methyl-3-[3-(1-methyl-2-oxo-1,2-dihydroquinolin-6-ylmethoxy)phenyl]cyclohexane]
2 | 390 | COC1CCC(C)C(c2cccc(OCc3ccc4c(ccc(=O)n4C)c3)c2)C1 (centres unmarked) [Example 2, 1-methoxy-4-methyl-3-[3-(1-methyl-2-oxo-1,2-dihydroquinolin-6-ylmethoxy)phenyl]cyclohexane]
